Consider 15 compounds from US4503068A, “Use of prostaglandin analogues to treat cytodamage” (priority 1982, dated 1985).

What is called LD50 is the dose at which mortality reaches 50%. A low value points to greater toxicity.

Data set [1] has as its system carbon tetrachloride (CCl4) induced liver damage. The data set is described as follows: Effect on carbon tetrachloride (CCl4) induced liver damage (liver cell necrosis type). In kind it is in vivo, Male Wistar rats. As to conditions: Rattus norvegicus; for inhibition in vivo at 0.1 mg/kg: 100 μg/kg 6 and 12 hr after CCl4; for inhibition in vivo at 1 mg/kg: 1000 μg/kg 6 and 12 hr after CCl4; for inhibition in vivo at 0.5 mg/kg: 500 μg/kg 6 and 12 hr after CCl4; for inhibition in vivo at 0.05 mg/kg: 50 μg/kg 6 and 12 hr after CCl4; for inhibition in vivo at 0.02 mg/kg: 20 μg/kg 6 and 12 hr after CCl4; for inhibition in vivo at 2 mg/kg: 2000 μg/kg 6 and 12 hr after CCl4. The protocol:
Effect on carbon tetrachloride (CCl4) induced liver damage (liver cell necrosis type)
Male Wistar rats weighing 180-220 g were used. Rats were dosed intraperitoneally with CCl4 dissolved in olive oil (5% w/v) at a volume of 500 μl/kg after 18 hr starvation. The compound under test was administered orally (p.o.) or subcutaneously (s.c.) 6 and 12 hr after CCl4 injection in rats and blood was collected after 24 hr. Plasma glutamic oxaloacetic transaminase (GOT) and glutamic pyruvic transaminase (GPT) activities were determined by ultraviolet absorbance methods (optimised method based on the recommendations of the Deutsche Gesellschaft f/u/ r Klinische Chemie). The effects of the compounds tested were assessed by the inhibition rate in comparison with controls. Inhibition rate was calculated by the following formula. [formula]
(§1) In Tables 1 to 4 hereinafter the dose shown is the amount given at each administration of the compound under test.

A further data set is described as follows: in vivo. Particulars: mouse, mice, oral, observed for 14 days. As to the method:
Male JCL-ICR mice (non SPF mice) from 7 weeks of age were used. The compound under test was dissolved in 5% v/v ethanol containing 0.4% w/v Tween 80 (Tween is a registered trademark) and administered orally to the mice.

In data set [2] the test system is diet-induced acute pancreatitis. As to conditions: mice; cited from earlier work.
Data set [3] concerns carbon tetrachloride-induced liver cell necrosis. Particulars: in vivo; cited from earlier work.
Data set [4] has as its system acute galactosamine-induced liver damage. As to conditions: in vivo; cited from earlier work.
The subject of data set [5] is α-naphthylisothiocyanate-induced liver damage. The data set is described as follows: Effect on α-naphthylisothiocyanate-induced liver damage (cholangioatresia type). Particulars: p.o., blood after 24 hr. In kind it is in vivo, Male Wistar rats. As to the method: as §1
Effect on α-naphthylisothiocyanate-induced liver damage (cholangioatresia type)
Male Wistar rats weighing 190-220 g were used. After rats had fasted for 18 hr, α-naphthylisothiocyanate (ANIT) dissolved in olive oil (1.5% w/v) was given orally to them at 30 mg/kg body weight. The compound under test was administered orally 30 min before and 6 and 12 hr after administration of ANIT and blood was collected after 24 hr. Plasma GOT, GPT and bilirubin activities were determined and the results given in Table 3 show the inhibition rate compared with controls (calculation by the formula shown in Experiment 1).

Data set [6] concerns D(+)-galactosamine hydrochloride-induced liver damage. Briefly: Effect on D(+)-galactosamine hydrochloride-induced liver damage (hepatitis type). In kind it is in vivo, Male Wistar rats. Particulars: p.o. As to the method: as §1
Effect on D(+)-galactosamine hydrochloride-induced liver damage (hepatitis type)
Male Wistar rats weighing 180-200 g were used. After the rats had fasted for 18 hr, 375 mg/kg galactosamine hydrochloride was administered to them intraperitoneally two times at 6 hr intervals. The compound under test was administered orally, 30 minutes before and, 6, 12 and 24 hr after the dose of D(+)-galactosamine hydrochloride and blood was collected after 24 and 48 hr. Plasma GOT and GPT activities were determined in the manner described in Experiment 1; plasma bilirubin activities were also determined. The effects were shown by the inhibition rate compared with controls (calculation by the formula shown in Experiment 1).

[7] abbreviates: po, plasma GOT after 24 hr, read-out: inhibition rate, GOT.
Where [8] appears, read: po, plasma GPT after 24 hr, read-out: inhibition rate, GPT.
[9] abbreviates: sc, plasma GOT after 24 hr, read-out: inhibition rate, GOT.
The mark [10] stands for this setting: sc, plasma GPT after 24 hr, read-out: inhibition rate, GPT.

Read-outs that look alike come from different tables or passages of the source. A value given as a limit tells only on which side of the number the result lay.

For `CCCC[C@H](C)C[C@H](O)CC[C@H]1[C@H](O)CC(=O)[C@@H]1CC(=O)CCCCC(=O)OC` [Compound 4, 17S,20-dimethyl-13,14-dihydro-6-oxo-PGE1 methyl ester], the inhibition in vivo at 0.1 mg/kg in data set [1] (setting [7]) was determined as 52.1%; in data set [1] (setting [8]) it was 62.3%. Also, the LD50 at 336 h in “in vivo” is > 10 mg/kg.
For the compound `CCCCC[C@H](O)/C=C/[C@H]1[C@H](O)CC(=O)[C@@H]1C/C=C\CCCC(=O)O` [PGE2], in data set [2], the “effect against diet-induced acute pancreatitis” value is reported as “effective”.
Turning to `CCCCC(C)(C)[C@H](O)/C=C/[C@H]1[C@H](O)CC(=O)[C@@H]1C/C=C\CCCC(=O)O` [16,16-dimethyl-PGE2], the “prevention of carbon tetrachloride-induced liver cell necrosis” value in data set [3] was “prevents”. The “prevention of acute galactosamine-induced liver damage” value in data set [4] is on record as “prevents”.
In the case of `CCCC[C@H](C)C[C@H](O)/C=C/[C@@H]1[C@H]2CC(CC/C=C/C(=O)OC)O[C@H]2C[C@H]1O` (stereo partly drawn) [Compound 7, 17S,20-dimethyl-trans-Δ^2-6RS-PGI1 methyl ester], the figures for the inhibition in vivo at 1 mg/kg in data set [1] (setting [7]) and in data set [1] (setting [8]) were 58% and 42.7%, respectively.
Take `CCCC[C@H](C)C[C@H](O)/C=C/[C@@H]1[C@H]2C[C@H](CCCCCO)O[C@H]2C[C@H]1O` [Compound 11, 17S,20-dimethyl-6S-PGI1 alcohol]: the inhibition in vivo at 0.5 mg/kg in data set [1] (setting [9]) was determined as 73.3%; in data set [1] (setting [10]) it was 65.2%. In addition, the LD50 at 336 h in the data set “in vivo” was > 50 mg/kg.
For `CCCC[C@H](C)C[C@H](O)/C=C/[C@H]1[C@H](O)CC(=O)[C@@H]1CC(=O)CCCCC(=O)OC` [Compound 2, 17S,20-dimethyl-6-oxo-PGE1 methyl ester], in data set [5] (100 μg/kg per administration), the “inhibition, GOT” value came out at 39.6%; the “inhibition, GPT” value is listed as 41.9%; the “inhibition, bilirubin” value was found to be 37.5%. Further, in data set [6] (100 μg/kg per administration), the “inhibition rate, GOT 24 hr after” value amounted to 29.5%; the “inhibition rate, GPT 24 hr after” value came out at 6.7%; the “inhibition rate, bilirubin 24 hr after” value worked out at 24.2%; the “inhibition rate, GOT 48 hr after” value turned out to be 32.7%. In data set [6] (100 μg/kg per administration), the “inhibition rate, GPT 48 hr after” value was found to be 23.5% and the “inhibition rate, bilirubin 48 hr after” value is on record as 34.6%. In data set [1] (setting [7]), the inhibition in vivo at 0.05 mg/kg turned out to be 61.5%. Also, the inhibition in vivo at 0.05 mg/kg in data set [1] (setting [8]) came out at 44.1%. For the same compound, the inhibition in vivo at 0.02 mg/kg in data set [1] (setting [9]) came to 37.9%. For the same compound, the inhibition in vivo at 0.02 mg/kg in data set [1] (setting [10]) is 34.6%.
Regarding `CCCC[C@H](C)[C@H](O)/C=C/[C@H]1[C@H](O)CC(=O)[C@@H]1CC(=O)CCCCC(=O)OC` [Compound 1, 16S-methyl-6-oxo-PGE1 methyl ester], the inhibition in vivo at 0.1 mg/kg in data set [1] (setting [7]) amounted to 59.9%; in data set [1] (setting [8]), 53.5%. The inhibition in vivo at 0.02 mg/kg was found to be 27.8% in data set [1] (setting [9]) and 16.3% in data set [1] (setting [10]).
In the case of `CCCC1CCC(C(O)/C=C/[C@@H]2[C@H]3CC(CCCCCO)=N[C@H]3C[C@H]2O)C1` (single isomer, unassigned) [Compound 13, 15-(3-propylcyclopentyl)-16,17,18,19,20-pentanor-6,9α-nitrilo-PGI1 alcohol], the inhibition in vivo at 1 mg/kg was 53.6% in data set [1] (setting [7]) and 58.2% in data set [1] (setting [8]).
For `CCCC[C@H](C)C[C@H](O)/C=C/[C@@H]1[C@H]2C[C@H](CCCCC(=O)CO)O[C@H]2C[C@H]1O` [Compound 9, 2-decarboxy-2-glycoloyl-17S,20-dimethyl-6S-PGI1], the inhibition in vivo at 0.5 mg/kg in data set [1] (setting [9]) stood at 58.4%; in data set [1] (setting [10]), 51.4%. The median lethal dose (LD50) at 336 h in “in vivo” was > 50 mg/kg.
In the case of `CCCC[C@H](C)C[C@H](O)/C=C/[C@H]1[C@H](O)CC(=O)[C@@H]1CC(=O)CCCCCO` [Compound 5, 17S,20-dimethyl-6-oxo-PGE1 alcohol], in data set [5] (100 μg/kg per administration), the “inhibition, GOT” value came out at 54.1%; the “inhibition, GPT” value stood at 53.1%; the “inhibition, bilirubin” value amounted to 41.7%. Besides, in data set [1] (setting [7]), the inhibition in vivo at 0.05 mg/kg is 56.6%. Besides, in data set [1] (setting [8]), the inhibition in vivo at 0.05 mg/kg came to 59.1%. Also, the LD50 at 336 h in “in vivo” was > 10 mg/kg.
Consider `CCCC[C@H](C)C[C@H](O)/C=C/[C@@H]1[C@H]2CC(CCCCC(=O)OC)=N[C@H]2C[C@H]1O` [Compound 8, 17S,20-dimethyl-6,9α-nitrilo-PGI1 methyl ester], for which, in data set [5] (1000 μg/kg per administration), the “inhibition, GOT” value was 68.7%; the “inhibition, GPT” value stood at 76.1%; the “inhibition, bilirubin” value was determined as 45.8%. In data set [6] (1000 μg/kg per administration), the “inhibition rate, GOT 24 hr after” value was 40.2%; the “inhibition rate, GPT 24 hr after” value worked out at 32.6%; the “inhibition rate, bilirubin 24 hr after” value amounted to 12.1%; the “inhibition rate, GOT 48 hr after” value is reported as 57.2%. In addition, in data set [6] (1000 μg/kg per administration), the “inhibition rate, GPT 48 hr after” value is 47.6% and the “inhibition rate, bilirubin 48 hr after” value is given as 11.5%. Moreover, in data set [1] (setting [7]), the inhibition in vivo at 1 mg/kg was found to be 41.1%. The inhibition in vivo at 1 mg/kg in data set [1] (setting [8]) worked out at 14.5%. Moreover, in data set [1] (setting [9]), the inhibition in vivo at 0.5 mg/kg turned out to be 65.6%. In data set [1] (setting [10]), the inhibition in vivo at 0.5 mg/kg was 58.6%. Also, the LD50 at 336 h in “in vivo” was 40 to 100 mg/kg.
As for `CCCCC[C@](C)(O)/C=C/[C@H]1[C@H](O)CC(=O)[C@@H]1CC(=O)CCCCC(=O)O` [Compound 3, 15S-methyl-6-oxo-PGE1], the inhibition in vivo at 0.1 mg/kg in data set [1] (setting [7]) stood at 6.8%; in data set [1] (setting [8]), 13.2%.
As to `OCCCCC[C@H]1C[C@@H]2[C@@H](/C=C/[C@@H](O)C3CCCC3)[C@H](O)C[C@@H]2O1` [Compound 12, 15-cyclopentyl-16,17,18,19,20-pentanor-6S-PGI1 alcohol], the inhibition in vivo at 2 mg/kg was 7.4% in data set [1] (setting [7]) and 44.1% in data set [1] (setting [8]).
With `CCCC[C@H](C)C[C@H](O)/C=C/[C@@H]1[C@H]2C[C@H](CCCCC(=O)OC)O[C@H]2C[C@H]1O` [Compound 6, 17S,20-dimethyl-6S-PGI1 methyl ester], in data set [5] (2000 μg/kg per administration), the “inhibition, GOT” value is 40.9%; the “inhibition, GPT” value was 44.6%; the “inhibition, bilirubin” value was 33.3%. Also, in data set [6] (2000 μg/kg per administration), the “inhibition rate, GOT 24 hr after” value turned out to be 50.2%; the “inhibition rate, GPT 24 hr after” value is 37.8%; the “inhibition rate, bilirubin 24 hr after” value amounted to 31.8%; the “inhibition rate, GOT 48 hr after” value stood at 25.5%. Also, in data set [6] (2000 μg/kg per administration), the “inhibition rate, GPT 48 hr after” value was 21.4% and the “inhibition rate, bilirubin 48 hr after” value is on record as 19.2%. In data set [1] (setting [9]), the inhibition in vivo at 0.5 mg/kg was 55.3%. In data set [1] (setting [10]), the inhibition in vivo at 0.5 mg/kg is 64.6%. The LD50 at 336 h in the data set “in vivo” was > 50 mg/kg.
As for `O=C(CO)CCCC[C@H]1C[C@@H]2[C@@H](/C=C/[C@@H](O)C3CCCC3)[C@H](O)C[C@@H]2O1` [Compound 10, 2-decarboxy-2-glycoloyl-15-cyclopentyl-16,17,18,19,20-pentanor-6S-PGI], the figures for the inhibition in vivo at 1 mg/kg in data set [1] (setting [9]) and in data set [1] (setting [10]) were 11.8% and 0%, respectively.
